Reference: the supplement of paper PMC10627819

What was measured:
S. pneumoniae D39V [1] = assay: fitness (endpoint OD595 vs no drug) (fraction); higher = more growth
Outline: (§1)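 Fitness was measured as bacterial growth in 384-well plates inoculated at OD595 0.01 (30 µl, or 55 µl for S. pneumoniae). Media were TSB, LB Lennox or CY, at 37 °C. OD595 was read every 30 min for 14 h and background-subtracted against the first reading. Fitness is OD595 at the transition into stationary phase divided by the robust mean of no-drug control wells, capped at 1.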

S. aureus DSM 20231 [2] = assay: as above
Outline: as §1

S. aureus Newman [3] = assay: as above
Outline: as §1

B. subtilis 168 [4] = assay: as above
Outline: as §1

S. pneumoniae D39V [5] = assay: Bliss interaction score (quartile over a dose matrix) (fitness difference); higher = more antagonism (negative = synergy)
Outline: (§2)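 Values were capped at 1 after dividing OD595 at stationary-phase entry by the plate's robust no-drug mean. This ratio is fitness, and single-drug fitness was inferred from the combination data. The Bliss score is observed minus product-expected fitness, given as quartiles over technical, biological and donor/recipient replicates.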

S. aureus DSM 20231 [6] = assay: as above
Outline: as §2

S. aureus Newman [7] = assay: as above
Outline: as §2

B. subtilis 168 [8] = assay: as above
Outline: as §2
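Throughout, for Bliss interaction score (quartile over a dose matrix): first quartile when negative (synergy) and third quartile when positive (antagonism).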

CCCCCCCCCC(=O)N[C@@H](Cc1c[nH]c2ccccc12)C(=O)N[C@H](CC(N)=O)C(=O)N[C@@H](CC(=O)O)C(=O)N[C@@H]1C(=O)NCC(=O)N[C@@H](CCCN)C(=O)N[C@@H](CC(=O)O)C(=O)N[C@H](C)C(=O)N[C@@H](CC(=O)O)C(=O)NCC(=O)N[C@H](CO)C(=O)N[C@@H]([C@H](C)CC(=O)O)C(=O)N[C@@H](CC(=O)c2ccccc2N)C(=O)O[C@@H]1C [Daptomycin] + Cc1cc(NS(=O)(=O)c2ccc(N)cc2)no1 [Sulfamethoxazol]
fitness
Conditions | partner 1 µg/mL | partner 2 µg/mL | partner 4 µg/mL
B. subtilis 168 [4], first compound 0.125 µg/mL | 0.893 | 0.821 | 0.938
B. subtilis 168 [4], first compound 0.25 µg/mL | 0.895 | 0.885 | 0.856
B. subtilis 168 [4], first compound 0.5 µg/mL | 0.928 | 0.814 | –
S. aureus DSM 20231 [2], first compound 0.5 µg/mL | 0.914 | ≥ 1 | ≥ 1
S. aureus DSM 20231 [2], first compound 1 µg/mL | 0.918 | 0.988 | 0.976
S. aureus DSM 20231 [2], first compound 2 µg/mL | 0.913 | 0.988 | 0.963
S. aureus Newman [3], first compound 0.125 µg/mL | 0.967 | 0.99 | ≥ 1
S. aureus Newman [3], first compound 0.25 µg/mL | 0.967 | 0.977 | ≥ 1
S. aureus Newman [3], first compound 0.5 µg/mL | 0.992 | 0.971 | ≥ 1
S. pneumoniae D39V [1], first compound 1 µg/mL | 0.932 | 0.95 | 0.964
S. pneumoniae D39V [1], first compound 2 µg/mL | 0.924 | 0.901 | 0.935
S. pneumoniae D39V [1], first compound 4 µg/mL | 0.916 | 0.938 | 0.938

one replicate
Conditions | fitness
B. subtilis 168 [4], first compound 0.125 µg/mL, partner 0.5 µg/mL | 0.919
B. subtilis 168 [4], first compound 0.25 µg/mL, partner 0.5 µg/mL | 0.908
B. subtilis 168 [4], first compound 0.5 µg/mL, partner 0.5 µg/mL | 0.969
B. subtilis 168 [4], first compound 1 µg/mL, partner 1 µg/mL | 0.719
B. subtilis 168 [4], first compound 1 µg/mL, partner 2 µg/mL | 0.72
B. subtilis 168 [4], first compound 1 µg/mL, partner 4 µg/mL | 0.645
S. aureus DSM 20231 [2], first compound 0.125 µg/mL, partner 1 µg/mL | 0.926
S. aureus DSM 20231 [2], first compound 0.125 µg/mL, partner 2 µg/mL | ≥ 1
S. aureus DSM 20231 [2], first compound 0.125 µg/mL, partner 4 µg/mL | ≥ 1
S. aureus DSM 20231 [2], first compound 0.25 µg/mL, partner 1 µg/mL | 0.951
S. aureus DSM 20231 [2], first compound 0.25 µg/mL, partner 2 µg/mL | ≥ 1
S. aureus DSM 20231 [2], first compound 0.25 µg/mL, partner 4 µg/mL | 0.974
S. aureus Newman [3], first compound 0.5 µg/mL, partner 8 µg/mL | 0.954
S. aureus Newman [3], first compound 1 µg/mL, partner 2 µg/mL | ≥ 1
S. aureus Newman [3], first compound 1 µg/mL, partner 4 µg/mL | 0.986
S. aureus Newman [3], first compound 1 µg/mL, partner 8 µg/mL | 0.973
S. aureus Newman [3], first compound 2 µg/mL, partner 2 µg/mL | 0.994
S. aureus Newman [3], first compound 2 µg/mL, partner 4 µg/mL | ≥ 1
S. aureus Newman [3], first compound 2 µg/mL, partner 8 µg/mL | 0.983

Conditions | Bliss interaction score
B. subtilis 168 [8] | -0.0776
S. aureus DSM 20231 [6] | 0.041
S. aureus Newman [7] | 0.0337
S. pneumoniae D39V [5] | 0.0745

CCCCCCCCCC(=O)N[C@@H](Cc1c[nH]c2ccccc12)C(=O)N[C@H](CC(N)=O)C(=O)N[C@@H](CC(=O)O)C(=O)N[C@@H]1C(=O)NCC(=O)N[C@@H](CCCN)C(=O)N[C@@H](CC(=O)O)C(=O)N[C@H](C)C(=O)N[C@@H](CC(=O)O)C(=O)NCC(=O)N[C@H](CO)C(=O)N[C@@H]([C@H](C)CC(=O)O)C(=O)N[C@@H](CC(=O)c2ccccc2N)C(=O)O[C@@H]1C [Daptomycin] + Cc1ncc([N+](=O)[O-])n1CCO [Metronidazole]
fitness
Conditions | partner 0.625 µg/mL | partner 1.073 µg/mL | partner 1.25 µg/mL | partner 2.145 µg/mL | partner 2.5 µg/mL | partner 4.29 µg/mL | partner 5 µg/mL
B. subtilis 168 [4], first compound 0.125 µg/mL | 0.942 | – | 0.892 | – | 0.93 | – | –
B. subtilis 168 [4], first compound 0.25 µg/mL | 0.899 | – | 0.966 | – | 0.944 | – | –
B. subtilis 168 [4], first compound 0.5 µg/mL | 0.935 | – | 0.904 | – | 0.874 | – | –
S. aureus DSM 20231 [2], first compound 0.125 µg/mL | 0.924 | – | ≥ 1 | – | 0.983 | – | –
S. aureus DSM 20231 [2], first compound 0.25 µg/mL | 0.932 | – | ≥ 1 | – | ≥ 1 | – | –
S. aureus DSM 20231 [2], first compound 0.5 µg/mL | ≥ 1 | – | ≥ 1 | – | ≥ 1 | – | –
S. aureus DSM 20231 [2], first compound 1 µg/mL | ≥ 1 | – | ≥ 1 | – | ≥ 1 | – | –
S. aureus DSM 20231 [2], first compound 2 µg/mL | ≥ 1 | – | ≥ 1 | – | ≥ 1 | – | –
S. aureus Newman [3], first compound 0.125 µg/mL | 0.935 | – | ≥ 1 | – | 0.982 | – | –
S. aureus Newman [3], first compound 0.25 µg/mL | 0.951 | – | ≥ 1 | – | 0.994 | – | –
S. aureus Newman [3], first compound 0.5 µg/mL | ≥ 1 | – | ≥ 1 | – | 0.975 | – | –
S. pneumoniae D39V [1], first compound 1 µg/mL | – | 0.846 | 0.977 | 0.786 | ≥ 1 | 0.777 | 0.993
S. pneumoniae D39V [1], first compound 2 µg/mL | – | 0.9 | 0.985 | 0.876 | ≥ 1 | 0.87 | ≥ 1
S. pneumoniae D39V [1], first compound 4 µg/mL | – | 0.949 | 0.93 | 0.888 | 0.97 | 0.928 | 0.976

fitness, one replicate
Conditions | partner 0.625 µg/mL | partner 0.781 µg/mL | partner 1.25 µg/mL | partner 1.562 µg/mL | partner 2.5 µg/mL | partner 3.124 µg/mL
B. subtilis 168 [4], first compound 1 µg/mL | 0.736 | – | 0.806 | – | 0.754 | –
S. aureus Newman [3], first compound 0.125 µg/mL | – | ≥ 1 | – | ≥ 1 | – | ≥ 1
S. aureus Newman [3], first compound 0.25 µg/mL | – | ≥ 1 | – | ≥ 1 | – | ≥ 1
S. aureus Newman [3], first compound 0.5 µg/mL | – | ≥ 1 | – | ≥ 1 | – | ≥ 1

Conditions | Bliss interaction score
B. subtilis 168 [8] | -0.0566
S. aureus DSM 20231 [6] | 0.0276
S. aureus Newman [7] | 0.0422
S. pneumoniae D39V [5] | 0.0723
